PMC10641831 (Journal of Medicinal Chemistry, 2023)
Numbered stars: 1 amine (or outer) side, 2 acyl side, 3 side chain; on linkers, the order of the positions; unused ones are H or OH. Bridge positions count the residues as written; N and C are the ends. Square brackets hold non-standard residues; d marks the D form. Peptide text beside a SMILES is read from it. Phe(4-(Z)-phenylazo) = N[C@@H](Cc1ccc(/N=N\c2ccccc2)cc1)C(=O)O; AMPB(E) = O=C(c1ccc(/N=N/c2ccc(CN[*:1])cc2)cc1)[*:2]; X1 = O=C([C@H](Cc1ccc(/N=N/c2ccccc2)cc1)N[*:1])[*:2]; X2 = O=C(c1ccc(/N=N\c2ccc(CN[*:1])cc2)cc1)[*:2]

Biological target: T1, hOTR (Homo sapiens, UniProt P30559)
T1 construct: expressed in transfected cells
T1 sequence (P30559 1-389): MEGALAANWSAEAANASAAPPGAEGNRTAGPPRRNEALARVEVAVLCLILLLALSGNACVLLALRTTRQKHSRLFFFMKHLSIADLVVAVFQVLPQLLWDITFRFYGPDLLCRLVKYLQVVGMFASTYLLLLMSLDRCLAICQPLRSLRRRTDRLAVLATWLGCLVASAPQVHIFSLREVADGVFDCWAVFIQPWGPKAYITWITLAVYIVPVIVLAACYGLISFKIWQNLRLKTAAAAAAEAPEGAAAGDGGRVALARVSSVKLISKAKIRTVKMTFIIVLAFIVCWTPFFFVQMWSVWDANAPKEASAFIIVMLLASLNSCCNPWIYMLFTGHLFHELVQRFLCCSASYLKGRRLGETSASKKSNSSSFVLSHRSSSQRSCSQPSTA
Assay: IP-One accumulation assay, agonist function, HEK293 cells expressing hOTR
Assay type: cell-based
Details: for Emax: HEK293, relative to the effect of OT, read-out: OTR Emax ± SEM; for EC50: IP-One, stable HEK293 hOTR, E = thermal equilibrium, Z = PSS after 340 nm, read-out: OTR EC50 ± SEM; for OTR E/Z ratio EC50: ratio of EC50 of E- and Z-isomer; for decrease in potency compared to OT at OTR: EC50 vs OT

Which results are given for `CC[C@H](C)[C@@H]1NC(=O)[C@H](Cc2ccc(O)cc2)NC(=O)[C@@H](N)CSSC[C@@H](C(=O)NCc2ccc(/N=N/c3ccc(C(=O)N[C@@H](CC(C)C)C(=O)NCC(N)=O)cc3)cc2)NC(=O)[C@H](CC(N)=O)NC(=O)[C@H](CCC(N)=O)NC1=O` [E-11] (H-CYIQNC[AMPB(E)]LG-NH2; disulfide 1-6)?
Emax: 75 ± 1%; EC50: 263 ± 21 nM; OTR E/Z ratio EC50: 2.0

Which results are given for `CC[C@H](C)[C@@H]1NC(=O)[C@H](Cc2ccc(/N=N/c3ccccc3)cc2)NC(=O)[C@@H](N)CSSC[C@@H](C(=O)N2CCC[C@H]2C(=O)N[C@@H](CC(C)C)C(=O)NCC(N)=O)NC(=O)[C@H](CC(N)=O)NC(=O)[C@H](CCC(N)=O)NC1=O` [E-8] (H-C[X1]IQNCPLG-NH2; disulfide 1-6)?
EC50: 4500 ± 1010 nM; OTR E/Z ratio EC50: 1.3; OTR Emax ± SEM (relative to the effect of OT): 45 ± 3%

Which “decrease in potency compared to OT at OTR” value (from here on “decrease in potency”) does the source give for `CC[C@H](C)[C@@H]1NC(=O)[C@H](Cc2ccc(O)cc2)NC(=O)[C@@H](N)CSSC[C@@H](C(=O)NCc2ccc(/N=N\c3ccc(C(=O)N[C@@H](CC(C)C)C(=O)NCC(N)=O)cc3)cc2)NC(=O)[C@H](CC(N)=O)NC(=O)[C@H](CCC(N)=O)NC1=O` [Z-11] (H-CYIQNC[X2]LG-NH2; disulfide 1-6) here?
Its value is 55 fold.

What about the Emax of the same molecule?
The Emax was 86 ± 1%.

And the EC50?
Its EC50 is 134 ± 17 nM.

And the “OTR E/Z ratio EC50” value?
The value was 2.0.

`CC[C@H](C)[C@@H]1NC(=O)[C@H](Cc2ccc(/N=N\c3ccccc3)cc2)NC(=O)[C@@H](N)CSSC[C@@H](C(=O)N2CCC[C@H]2C(=O)N[C@@H](CC(C)C)C(=O)NCC(N)=O)NC(=O)[C@H](CC(N)=O)NC(=O)[C@H](CCC(N)=O)NC1=O` [Z-8] (H-C[Phe(4-(Z)-phenylazo)]IQNCPLG-NH2; disulfide 1-6) was tested. Which Emax did it give?
The Emax was 35 ± 1%.

What about the EC50 of the same molecule?
The EC50 was 3500 ± 1890 nM.

What about the “OTR E/Z ratio EC50” value of the same molecule?
Its value is 1.3.

Which “decrease in potency” value does the source give for `CC[C@H](C)[C@@H]1NC(=O)[C@H](Cc2ccc(O)cc2)NC(=O)[C@@H](N)CSSC[C@@H](C(=O)NCc2ccc(/N=N\c3ccc(C(=O)NCC(N)=O)cc3)cc2)NC(=O)[C@H](CC(N)=O)NC(=O)[C@H](CCC(N)=O)NC1=O` [Z-10] (H-CYIQNC[X2]G-NH2; disulfide 1-6) here?
Its value is 12 fold.

What about the Emax of the same molecule?
Its Emax is 92%.

And the EC50?
Its EC50 is 30.7 ± 4 nM.

And the “OTR E/Z ratio EC50” value?
Its value is 3.1.

With `CC[C@H](C)[C@@H]1NC(=O)[C@H](Cc2ccc(O)cc2)NC(=O)[C@@H](N)CSSC[C@@H](C(=O)N[C@@H](Cc2ccc(/N=N/c3ccccc3)cc2)C(=O)N[C@@H](CC(C)C)C(=O)NCC(N)=O)NC(=O)[C@H](CC(N)=O)NC(=O)[C@H](CCC(N)=O)NC1=O` [E-9] (H-CYIQNC[X1]LG-NH2; disulfide 1-6) as the molecule, how does the Emax read?
The Emax was 89 ± 1%.

And the EC50?
Its EC50 is 346 ± 30 nM.

And the “OTR E/Z ratio EC50” value?
Its value is 2.5.

With `CC[C@H](C)[C@@H]1NC(=O)[C@H](Cc2ccc(O)cc2)NC(=O)[C@@H](N)CSSC[C@@H](C(=O)N[C@@H](Cc2ccc(/N=N\c3ccccc3)cc2)C(=O)N[C@@H](CC(C)C)C(=O)NCC(N)=O)NC(=O)[C@H](CC(N)=O)NC(=O)[C@H](CCC(N)=O)NC1=O` [Z-9] (H-CYIQNC[Phe(4-(Z)-phenylazo)]LG-NH2; disulfide 1-6) as the molecule, how does the “decrease in potency” value read?
Its value is 55 fold.

What about the Emax of the same molecule?
The Emax was 90 ± 1%.

And the EC50?
Its EC50 is 136 ± 6 nM.

And the “OTR E/Z ratio EC50” value?
The value was 2.5.

For `CC[C@H](C)[C@@H]1NC(=O)[C@H](Cc2ccc(O)cc2)NC(=O)[C@@H](N)CSSC[C@@H](C(=O)NCc2ccc(/N=N/c3ccc(C(=O)NCC(N)=O)cc3)cc2)NC(=O)[C@H](CC(N)=O)NC(=O)[C@H](CCC(N)=O)NC1=O` [E-10] (H-CYIQNC[AMPB(E)]G-NH2; disulfide 1-6), which Emax is on record?
Its Emax is 80 ± 1%.

What about the EC50 of the same molecule?
The EC50 was 94.6 ± 19 nM.

What about the “OTR E/Z ratio EC50” value of the same molecule?
The value was 3.1.
